Measurements from PMC9250534, “Synthesis and direct assay of large macrocycle diversities by combinatorial late-stage modification at picomole scale” (Nature Communications, 2022).
Numbered stars: 1 amine (or outer) side, 2 acyl side, 3 side chain; on linkers, the order of the positions; unused ones are H or OH. Bridge positions count the residues as written; N and C are the ends. Square brackets hold non-standard residues; d marks the D form. Peptide text beside a SMILES is read from it. * marks the point of attachment. 2Thenoyl(5-Cl) = O=C(c1ccc(Cl)s1)*; Cysteamide = C(CS[*:3])N[*:1]; dDap = NC[C@@H](N)C(=O)O; Orn = NCCC[CH](N)C(=O)O; Dap = NC[C@H](N)C(=O)O; Mpa = O=C(O)CCS

Molecular target: T1, thrombin (Homo sapiens, UniProt P00734)
T1 construct: consists of two polypeptide chains of 36 (light chain) and 259 amino acid
Experiment: Thrombin inhibition screen of crude macrocycle reactions (residual thrombin activity, fluorogenic substrate Z-Gly-Gly-Arg-AMC)
Format: biochemical
Conditions: 10 µM macrocycle concentration, macrocycles containing acid 14, crude reaction; for % thrombin activity, Repeat screen: replicate reaction and screen
Procedure, shortened: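 Residual activity was measured as the AMC release rate after adding 50 μM Z-Gly-Gly-Arg-AMC. This followed a 10-min room-temperature preincubation of 2 nM thrombin with 10 μM single macrocycles in pH 7.4 Tris buffer (0.6% DMSO). Percent inhibition was taken against the mean slope of DMSO controls.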

Row | % thrombin activity, Original screen [%] | % thrombin activity, Repeat screen [%] | % thrombin activity, Original screen (listed as X D6 V B5) [%] | % thrombin activity, Repeat screen (listed as X D6 V B5) [%] | SMILES
1 | 95.8 | 95.8 | – | – | O=C1CCSSCCNC(=O)C2CCCN2C(=O)C(CCCNC(=O)c2ccc(Cl)s2)NC(=O)C(Cc2c[nH]cn2)N1 (stereo not shown) [X H D2 B1] ([Mpa]H[Orn](2Thenoyl(5-Cl))P-Cysteamide; disulfide 1-C; configuration not given here)
2 | 91.3 | 90.1 | – | – | CC[C@H](C)[C@@H]1NC(=O)CCSSCCNC(=O)[C@H](CNC(=O)c2ccc(Cl)s2)NC(=O)[C@@H]2CCCN2C1=O [X I B1 D3] ([Mpa]IP[Dap](2Thenoyl(5-Cl))-Cysteamide; disulfide 1-C)
3 | 72.9 | 70.2 | – | – | CC[C@H](C)[C@@H]1NC(=O)CCSSCCNC(=O)[C@H](CNC(=O)c2ccc(Cl)s2)NC(=O)CCNC1=O [X I B2 D3]
4 | 102.2 | 101.6 | – | – | CC[C@H](C)[C@@H]1NC(=O)CCSSCCNC(=O)[C@H]2CCCN(C2)C(=O)[C@H](CCCCNC(=O)c2ccc(Cl)s2)NC1=O [X I D1 B4]
5 | 102.3 | 104.9 | – | – | CC[C@H](C)[C@@H]1NC(=O)CCSSCCNC(=O)c2ccc(cc2)CNC(=O)[C@H](CNC(=O)c2ccc(Cl)s2)NC1=O [X I D3 B3]
6 | 94.8 | 97.2 | – | – | CC(C)C[C@@H]1NC(=O)CCSSCCNC(=O)[C@H](CCCCNC(=O)c2ccc(Cl)s2)NC(=O)C2(CC2)CNC1=O [X L B6 D1]
7 | 100.1 | 95.2 | – | – | CC(C)C[C@@H]1NC(=O)CCSSCCNC(=O)c2cccc(c2)CNC(=O)[C@H](CCCNC(=O)c2ccc(Cl)s2)NC1=O [X L D2 B5]
8 | 107.5 | 100.9 | – | – | CC(C)C[C@@H]1NC(=O)CCSSCCNC(=O)[C@@H]2CCCN2C(=O)[C@@H](CNC(=O)c2ccc(Cl)s2)NC1=O [X L D4 B1] ([Mpa]L[dDap](2Thenoyl(5-Cl))P-Cysteamide; disulfide 1-C)
9 | 97.4 | 98.1 | – | – | NC(=O)CC[C@@H]1NC(=O)CCSSCCNC(=O)C2(CCN(C(=O)c3ccc(Cl)s3)CC2)NC(=O)CCNC1=O [X Q B2 D6]

Continued, compound first:

Row | SMILES | % thrombin activity, Original screen [%] | % thrombin activity, Repeat screen [%] | % thrombin activity, Original screen (listed as X D6 V B5) [%] | % thrombin activity, Repeat screen (listed as X D6 V B5) [%]
10 | O=C1CCSSCCNC(=O)[C@@H](Cc2ccccc2)NC(=O)c2cccc(c2)CNC(=O)C2(CCN(C(=O)c3ccc(Cl)s3)CC2)N1 [X D6 B5 f] | 92.3 | 95.8 | – | –
11 | O=C1CCSSCCNC(=O)[C@H](Cc2c[nH]cn2)NC(=O)C2(CC2)CNC(=O)C2(CCN(C(=O)c3ccc(Cl)s3)CC2)N1 [X D6 B6 H] | 96.8 | 96.5 | – | –
12 | CC(C)C1NC(=O)C2(CCN(C(=O)c3ccc(Cl)s3)CC2)NC(=O)CCSSCCNC(=O)C2CCCN(C2)C1=O (stereo not shown) [X D6 V B4] | 81.5 | 80.4 | – | –
13 | O=C1CCSSCCNC(=O)[C@H]2CCCN(C2)C(=O)[C@H](Cc2c[nH]c3ccccc23)NC(=O)C2(CCN(C(=O)c3ccc(Cl)s3)CC2)N1 [X D6 W B4] | 95.3 | 101.4 | – | –
14 | CC(C)[C@H]1NC(=O)C2(CCN(C(=O)c3ccc(Cl)s3)CC2)NC(=O)CCSSCCNC(=O)c2cccc(c2)CNC1=O [X D6 v B5] | 84.9 | 90.5 | 98.9 | 103.9
15 | O=C1CCNC(=O)[C@@H](Cc2ccc(O)cc2)NC(=O)C2(CCN(C(=O)c3ccc(Cl)s3)CC2)NC(=O)CCSSCCN1 [X D6 y B2] | 102.0 | 104.5 | – | –
16 | O=C1CCNC(=O)[C@H](Cc2c[nH]cn2)NC(=O)CCSSCCNC(=O)[C@H](CCCNC(=O)c2ccc(Cl)s2)N1 [X H B2 D2] | 94.6 | 91.5 | – | –
